# Data published in the supplement of paper PMC10307832.
# Key:
# Assay in all cases: relative viability (nuclei count vs DMSO), 5 days (fraction); higher = more cells survive
# BI-2536 + Luminespib = compound: CC[C@@H]1C(=O)N(C)c2cnc(Nc3ccc(C(=O)NC4CCN(C)CC4)cc3OC)nc2N1C1CCCC1 [BI-2536] + CCNC(=O)c1noc(-c2cc(C(C)C)c(O)cc2O)c1-c1ccc(CN2CCOCC2)cc1 [Luminespib] (partner 0.01 µM)
# In short: (§1)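 Lung cancer cell lines in 1536-well plates were dosed by pin tool the day after seeding, either with one drug alone or with a fixed anchor-drug dose plus five library-drug doses (not always all listed) in √10 steps. After 5 days, cells were fixed and their nuclei stained in one step (final 0.05% Triton X-100, 1% formaldehyde, 1 ug/ml Hoechst), then counted on 4× images. Relative viability is the nuclei count in treated wells divided by that in vehicle wells. Values are medians of duplicate plates.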
# BI-2536 + Olaparib = compound: CC[C@@H]1C(=O)N(C)c2cnc(Nc3ccc(C(=O)NC4CCN(C)CC4)cc3OC)nc2N1C1CCCC1 [BI-2536] + O=C(c1cc(Cc2n[nH]c(=O)c3ccccc23)ccc1F)N1CCN(C(=O)C2CC2)CC1 [Olaparib] (partner 8 µM)
# In short: as §1
# BI-2536 + Tozasertib = compound: CC[C@@H]1C(=O)N(C)c2cnc(Nc3ccc(C(=O)NC4CCN(C)CC4)cc3OC)nc2N1C1CCCC1 [BI-2536] + Cc1cc(Nc2cc(N3CCN(C)CC3)nc(Sc3ccc(NC(=O)C4CC4)cc3)n2)n[nH]1 [Tozasertib] (partner 0.1 µM)
# In short: as §1
# [1] = compound: CC1CC(=O)N(C2=CN=C(N=C2N1C3CCCC3)NC4=C(C=C(C=C4)C(=O)NC5CCN(CC5)C)OC)C [NPK76-II-72-1] + O=C(CCCCCCC(=O)Nc1ccccc1)NO [Vorinostat] (partner 1 µM)
# In short: as §1
Cell Line,relative viability (BI-2536 + Luminespib; first compound 0.01 µM),relative viability (BI-2536 + Luminespib; first compound 0.03162 µM),relative viability (BI-2536 + Luminespib; first compound 0.1 µM),relative viability (BI-2536 + Luminespib; first compound 0.3162 µM),relative viability (BI-2536 + Luminespib; first compound 1 µM),relative viability (BI-2536 + Olaparib; first compound 0.01 µM),relative viability (BI-2536 + Olaparib; first compound 0.03162 µM),relative viability (BI-2536 + Olaparib; first compound 0.1 µM),relative viability (BI-2536 + Olaparib; first compound 0.3162 µM),relative viability (BI-2536 + Olaparib; first compound 1 µM),relative viability (BI-2536 + Tozasertib; first compound 0.01 µM),relative viability (BI-2536 + Tozasertib; first compound 0.03162 µM),relative viability (BI-2536 + Tozasertib; first compound 0.1 µM),relative viability (BI-2536 + Tozasertib; first compound 0.3162 µM),relative viability (BI-2536 + Tozasertib; first compound 1 µM),relative viability ([1]; first compound 0.03162 µM),relative viability ([1]; first compound 0.1 µM),relative viability ([1]; first compound 0.3162 µM),relative viability ([1]; first compound 1 µM),relative viability ([1]; first compound 0.01 µM)
NCI-H1793,0.201,0.167,0.137,0.168,0.14,0.674,0.767,0.203,0.152,0.157,0.331,0.33,0.277,0.217,0.186,0.693,0.809,0.61,0.825,–
NCI-H520,0.242,0.199,0.194,0.206,0.214,0.284,0.217,0.228,0.162,0.168,0.429,0.424,0.365,0.395,0.361,0.84,0.698,0.741,0.748,0.706
NCI-H460,0.0287,0.0394,0.0295,0.0298,0.0252,0.488,0.421,0.268,0.0394,0.0262,0.367,0.477,0.336,0.0323,0.0403,0.799,0.703,0.748,0.636,0.684
EKVX,0.911,0.955,0.8,0.292,0.123,0.856,0.827,0.582,0.211,0.177,0.321,0.482,0.394,0.202,0.132,0.736,0.684,–,0.921,0.634
NCI-H358,0.414,0.283,0.398,0.127,0.0998,0.559,0.247,0.0974,0.0882,0.0802,0.113,0.105,0.103,0.0917,0.0924,0.647,0.754,–,0.818,0.674
EPLC-272H,0.293,0.166,0.153,0.102,0.0894,0.478,0.111,0.124,0.081,0.0599,0.187,0.252,0.215,0.148,0.164,0.4,0.456,0.574,0.41,0.403
NCI-H1395,0.582,0.605,0.511,0.361,0.339,0.4,0.396,0.329,0.364,0.355,0.668,0.729,0.642,0.399,0.285,0.67,0.642,0.721,0.84,0.711
NCI-H2126,0.855,0.512,0.392,0.278,0.32,0.968,0.891,0.77,0.322,0.241,0.884,0.373,0.296,0.236,0.269,0.798,0.846,0.713,0.828,0.761
LXF-289,0.624,0.533,0.319,0.0739,0.0875,1,0.719,0.343,0.0702,0.0622,0.216,0.214,0.206,0.0925,0.11,0.714,0.703,0.655,0.756,0.772
NCI-H2009,1.09,0.94,0.696,0.16,0.0773,0.665,0.54,0.45,0.114,0.126,0.769,0.667,0.459,0.321,0.23,0.713,0.705,0.728,0.77,0.696
SW 900,0.189,0.186,0.173,0.198,0.201,0.804,1.05,0.691,0.215,0.153,0.566,0.694,0.418,0.278,0.173,0.624,0.515,0.433,0.559,0.515
NCI-H2405,0.599,0.435,0.359,0.283,0.31,0.855,0.547,0.325,0.281,0.416,0.73,0.566,0.381,0.296,0.33,0.791,1.04,1.07,1.03,0.949
NCI-H1755,0.291,0.416,0.298,0.283,0.327,0.945,0.816,0.707,0.373,0.316,0.559,0.595,0.477,0.344,0.317,0.76,0.928,0.82,0.782,0.89
LOU-NH91,0.372,0.345,0.306,0.279,0.267,0.934,0.728,0.612,0.336,0.28,0.694,0.543,0.439,0.34,0.234,0.935,0.763,0.814,1.06,0.89
NCI-H3122,0.11,0.0932,0.107,0.0899,0.0757,0.621,0.595,0.276,0.131,0.146,0.363,0.207,0.266,0.297,0.246,0.923,1.05,1.05,1.05,0.943
HCC-827,0.801,0.35,0.401,0.203,0.138,0.693,0.611,0.531,0.214,0.194,0.45,0.414,0.428,0.376,0.308,0.9,0.831,0.817,0.942,0.825
